{"source": "paper PMC9125976", "about": "“Cyanoacetohydrazide linked to 1,2,3-triazole derivatives: a new class of α-glucosidase inhibitors” (Scientific Reports, 2022)", "key": {"[1]": {"target": "T1, α-Glucosidase (Saccharomyces cerevisiae, EC3.2.1.20) (Saccharomyces cerevisiae, UniProt P53341)", "T1 construct": "purchased Sigma-Aldrich", "T1 sequence (P53341 whole entry)": "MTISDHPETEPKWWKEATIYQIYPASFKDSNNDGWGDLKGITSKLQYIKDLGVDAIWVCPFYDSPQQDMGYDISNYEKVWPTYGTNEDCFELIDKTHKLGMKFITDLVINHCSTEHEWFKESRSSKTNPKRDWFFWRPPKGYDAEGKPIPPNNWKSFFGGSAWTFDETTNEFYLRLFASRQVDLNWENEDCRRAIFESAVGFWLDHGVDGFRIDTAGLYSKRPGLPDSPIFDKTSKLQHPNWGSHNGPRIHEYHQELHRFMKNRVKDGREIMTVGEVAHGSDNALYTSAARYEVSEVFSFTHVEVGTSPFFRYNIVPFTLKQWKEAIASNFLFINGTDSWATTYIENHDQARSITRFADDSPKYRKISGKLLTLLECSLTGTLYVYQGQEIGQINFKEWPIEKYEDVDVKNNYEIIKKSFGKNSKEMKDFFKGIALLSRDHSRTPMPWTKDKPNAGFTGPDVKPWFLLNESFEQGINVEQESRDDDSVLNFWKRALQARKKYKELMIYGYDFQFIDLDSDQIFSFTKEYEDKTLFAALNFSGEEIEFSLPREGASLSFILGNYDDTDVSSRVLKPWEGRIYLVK", "experiment": "In vitro α-glucosidase inhibition assay", "assay_type": "biochemical", "protocol": "α-Glucosidase (Saccharomyces cerevisiae, EC3.2.1.20, 20 U/mg) and the substrate, […] (p-NPG) were purchased from Sigma-Aldrich and the assay was performed exactly according to our previous report. In this respect, various concentrations of each synthesized compound dissolved in DMSO, were added to potassium phosphate buffer (50 mM, pH 6.8) including enzyme (at final concentration of 0.1 U/mL), in a 96-well plate. After a 10-min incubation at 37 °C, p-NPG was added to each well to achieve final concentration of 4 mM. Then, the plate was re-incubated at 37 °C for 20 min. It should be noted that the final concentration of DMSO in each enzymatic solution was 10%. Finally, the change in the absorbance was measured at 405 nm using spectrophotometer (Synergy HTX Multi-Mode Microplate Reader–BioTek, Germany). […] The percentage of inhibition for compounds and control was calculated using Eq. (1):1 Inhibition%=ODnegative control-ODsample/ODnegative control×100OD=optical density at 405 nm.\nIC50 values were calculated from the nonlinear regression curve using the Logit method."}, "α-glucosidase [2]": {"target": "T2, α-glucosidase (Saccharomyces cerevisiae, UniProt P53341)", "T2 construct": "purchased Sigma-Aldrich", "T2 sequence (P53341 whole entry)": "as above", "details": "cited from earlier work"}, "α-glucosidase [3]": {"target": "T2, α-glucosidase", "experiment": "Fluorescence spectroscopy measurements", "assay_type": "binding", "details": "9e 0–1.0 μM, excitation 280 nm, emission maximum 340 nm, phosphate buffer 50 mM pH 6.8", "protocol": "Compound 9e at different concentrations (0–1.0 µM) was added into the 3 mL solution containing a fixed amount of α-glucosidase (0.1 U/mL). All mixtures were held for 10 min to equilibrate before measurements. Then, the fluorescence emission spectra were measured from 300 to 450 nm at the excitation wavelength of 280 nm on a Synergy HTX multi-mode reader (Biotek Instruments, Winooski, VT, USA) equipped with a 1.0 cm quartz cell holder. The fluorescence spectra of the buffer containing compound 9e in the absence of the enzyme were subtracted as the background fluorescence."}, "α-glucosidase [4]": {"target": "T2, α-glucosidase", "experiment": "Thermodynamic analysis (thermal denaturation followed by fluorescence)", "protocol": "Thermodynamic analysis was performed as described by Mojtabavi et al., the fluorescent intensity data were plotted as a function of temperature, and the thermodynamic profile was computed[48],[49]. Therefore, the denatured fraction (FD) of protein was calculated from Eq. (2), assuming a two-state mechanism for the protein denaturation:2 FD=YN-Yobs/YN-YD.\nIn Eq. (2), Yobs, YN, and YD are the observed […] characteristics of a fully native and denatured conformation, respectively. Equation (3) was used to calculate the apparent equilibrium constant (K) for a reversible denaturation process between native and denatured protein states:3 K=FD/1-FD=Yobs-YD/YN-YD.\nThe standard Gibbs free energy change (ΔG°) for protein denaturation is given by the Eq. (4):4 ΔG^^∘=GD^∘-GN^∘=-RTlnK, where T and R are the absolute temperature and the universal gas constant, respectively. The Gibbs free energy (ΔG°) is the most valuable standard of protein conformational stability in thermal denaturation. The integrated Gibbs–Helmholtz equation was utilized for measuring changes in the Gibbs energy of a system as a function of temperature (Eq. (5)):5 ΔG^^∘=ΔHm^∘1-T/Tm-ΔCpTm-T+TLnT/Tm, where ΔCp is the heat capacity of protein denaturation. The ΔCp (11.6 kJ/mol K) of the α-glucosidase denaturation was taken from van der Kamp et al. report. In thermal denaturation, Tm is the temperature at which the protein is half denatured. ΔH°m and ΔS°m are the standard enthalpy and entropy of denaturation. The standard entropy was calculated from a relation between the standard […] of denaturation as bellow: ΔH=TmΔS."}, "α-glucosidase [5]": {"target": "T2, α-glucosidase", "experiment": "Enzyme kinetic studies (Lineweaver–Burk plot)", "assay_type": "biochemical", "details": "for Ki: p-NPG 2–16 mM", "text": "A Lineweaver–Burk plot was generated to identify the type of inhibition and the Michaelis–Menten constant."}}, "note": "Entries after “also recorded” stand apart in the source; their conditions may differ."}
{"smiles": "Cc1ccccc1Cn1cc(COc2ccc(C=NNC(=O)CC#N)cc2)nn1", "note": "[Compound 9m, 2-Cyano-N′-(4-((1-(2-methylbenzyl)-1H-1,2,3-triazol-4-yl)methoxy)benzylidene)acetohydrazide]", "values": [{"measurement": "IC50", "setting": "[1]", "value": "11.3 ± 0.2", "unit": "µM"}]}
{"smiles": "COc1cc(C=NNC(=O)CC#N)ccc1OCc1cn(Cc2ccccc2Cl)nn1", "note": "[Compound 9d, N′-(4-((1-(2-chlorobenzyl)-1H-1,2,3-triazol-4-yl)methoxy)-3-methoxybenzylidene)-2-cyanoacetohydrazide]", "values": [{"measurement": "IC50", "setting": "[1]", "value": "14 ± 0.8", "unit": "µM"}]}
{"smiles": "O=C1Nc2ccccc2/C1=N/N=C/c1ccc(OCc2cn(Cc3ccccc3F)nn2)cc1", "note": "[Compound C]", "values": [{"measurement": "fold improvement in the inhibitory activity compared to acarbose", "setting": "α-glucosidase [2]", "value": 46, "unit": "fold"}]}
{"smiles": "COc1cc(C=NNC(=O)CC#N)ccc1OCc1cn(Cc2ccc(Cl)cc2)nn1", "note": "[Compound 9e, N′-(4-((1-(4-chlorobenzyl)-1H-1,2,3-triazol-4-yl)methoxy)-3-methoxybenzylidene)-2-cyanoacetohydrazide]", "values": [{"measurement": "change of α-glucosidase fluorescence", "setting": "α-glucosidase [3]", "value": "significant increase in fluorescence intensity"}, {"measurement": "Tm of α-glucosidase", "setting": "α-glucosidase [4]; compound 9e 0.25 µM", "value": 316, "unit": "K"}, {"measurement": "ΔHm° of α-glucosidase denaturation", "setting": "α-glucosidase [4]; compound 9e 0.25 µM", "value": 22.58, "unit": "kcal/mol"}, {"measurement": "ΔSm° of α-glucosidase denaturation", "setting": "α-glucosidase [4]; compound 9e 0.25 µM", "value": 298.95, "unit": "J mol^−1 K^−1"}, {"measurement": "Tm of α-glucosidase", "setting": "α-glucosidase [4]; compound 9e 0.50 µM", "value": 315, "unit": "K"}, {"measurement": "ΔHm° of α-glucosidase denaturation", "setting": "α-glucosidase [4]; compound 9e 0.50 µM", "value": 26.974, "unit": "kcal/mol"}, {"measurement": "ΔSm° of α-glucosidase denaturation", "setting": "α-glucosidase [4]; compound 9e 0.50 µM", "value": 358.28, "unit": "J mol^−1 K^−1"}, {"measurement": "Tm of α-glucosidase", "setting": "α-glucosidase [4]; compound 9e 0.75 µM", "value": 313, "unit": "K"}, {"measurement": "ΔHm° of α-glucosidase denaturation", "setting": "α-glucosidase [4]; compound 9e 0.75 µM", "value": 42.326, "unit": "kcal/mol"}, {"measurement": "ΔSm° of α-glucosidase denaturation", "setting": "α-glucosidase [4]; compound 9e 0.75 µM", "value": 565.76, "unit": "J mol^−1 K^−1"}, {"measurement": "Tm of α-glucosidase", "setting": "α-glucosidase [4]; compound 9e 1.0 µM", "value": 311, "unit": "K"}, {"measurement": "ΔHm° of α-glucosidase denaturation", "setting": "α-glucosidase [4]; compound 9e 1.0 µM", "value": 142.81, "unit": "kcal/mol"}, {"measurement": "ΔSm° of α-glucosidase denaturation", "setting": "α-glucosidase [4]; compound 9e 1.0 µM", "value": 1921.22, "unit": "J mol^−1 K^−1"}, {"measurement": "type of inhibition", "setting": "α-glucosidase [5]", "value": "uncompetitive inhibition; also recorded: uncompetitively"}, {"measurement": "Ki", "setting": "α-glucosidase [5]", "value": 0.24, "unit": "µM"}, {"measurement": "IC50", "setting": "[1]", "value": "1 ± 0.01", "unit": "µM"}, {"measurement": "fold better potency than the standard drug acarbose", "setting": "[1]", "value": 754, "unit": "fold"}]}
{"smiles": "N#CCC(=O)NN=Cc1ccc(OCc2cn(Cc3ccccc3F)nn2)cc1", "note": "[Compound 9i, 2-Cyano-N′-(4-((1-(2-fluorobenzyl)-1H-1,2,3-triazol-4-yl)methoxy)benzylidene)acetohydrazide]", "values": [{"measurement": "type of inhibition", "setting": "α-glucosidase [5]", "value": "competitive inhibition"}, {"measurement": "Ki", "setting": "α-glucosidase [5]", "value": 75, "unit": "µM"}, {"measurement": "IC50", "setting": "[1]", "value": "45.89 ± 0.1", "unit": "µM"}]}
{"smiles": "COc1cc(C=NNC(=O)CC#N)ccc1OCc1cn(Cc2ccccc2)nn1", "note": "[Compound 9a, N′-(4-((1-benzyl-1H-1,2,3-triazol-4-yl)methoxy)-3-methoxybenzylidene)-2-cyanoacetohydrazide]", "values": [{"measurement": "IC50", "setting": "[1]", "value": "> 750", "unit": "µM"}]}
{"smiles": "N#CCC(=O)NN=Cc1ccc(OCc2cn(Cc3ccc(Cl)cc3)nn2)cc1", "note": "[Compound 9l, N′-(4-((1-(4-chlorobenzyl)-1H-1,2,3-triazol-4-yl)methoxy)benzylidene)-2-cyanoacetohydrazide]", "values": [{"measurement": "type of inhibition", "setting": "α-glucosidase [5]", "value": "competitive inhibition"}, {"measurement": "Ki", "setting": "α-glucosidase [5]", "value": 85, "unit": "µM"}, {"measurement": "IC50", "setting": "[1]", "value": "21.66 ± 0.12", "unit": "µM"}]}
{"smiles": "COc1cc(C=NNC(=O)CC#N)ccc1OCc1cn(Cc2ccccc2F)nn1", "note": "[Compound 9b, 2-Cyano-N′-(4-((1-(2-fluorobenzyl)-1H-1,2,3-triazol-4-yl)methoxy)-3-methoxybenzylidene)acetohydrazide]", "values": [{"measurement": "type of inhibition", "setting": "α-glucosidase [5]", "value": "uncompetitive inhibition; also recorded: uncompetitively"}, {"measurement": "Ki", "setting": "α-glucosidase [5]", "value": 0.43, "unit": "µM"}, {"measurement": "IC50", "setting": "[1]", "value": "1.5 ± 0.01", "unit": "µM"}]}
{"smiles": "COc1cc(C=NNC(=O)CC#N)ccc1OCc1cn(Cc2ccc(F)cc2)nn1", "note": "[Compound 9c, 2-Cyano-N′-(4-((1-(4-fluorobenzyl)-1H-1,2,3-triazol-4-yl)methoxy)-3-methoxybenzylidene)acetohydrazide]", "values": [{"measurement": "IC50", "setting": "[1]", "value": "9.73 ± 0.3", "unit": "µM"}]}
{"smiles": "N#CCC(=O)NN=Cc1ccc(OCc2cn(Cc3ccccc3Cl)nn2)cc1", "note": "[Compound 9k, N′-(4-((1-(2-chlorobenzyl)-1H-1,2,3-triazol-4-yl)methoxy)benzylidene)-2-cyanoacetohydrazide]", "values": [{"measurement": "IC50", "setting": "[1]", "value": "74.7 ± 2.8", "unit": "µM"}]}
{"smiles": "COc1cc(C=NNC(=O)CC#N)ccc1OCc1cn(Cc2ccccc2C)nn1", "note": "[Compound 9f, 2-Cyano-N′-(3-methoxy-4-((1-(2-methylbenzyl)-1H-1,2,3-triazol-4-yl)methoxy)benzylidene)acetohydrazide]", "values": [{"measurement": "IC50", "setting": "[1]", "value": "28 ± 0.1", "unit": "µM"}]}
{"smiles": "CCc1ccc(NC(=O)Cn2cc(COc3ccc(-c4nc5ccccc5[nH]4)cc3)nn2)cc1", "note": "[B]", "values": [{"measurement": "mode of inhibition", "setting": "α-glucosidase [2]", "value": "competitive"}]}
{"smiles": "Cc1ccc(Cn2cc(COc3ccc(C=NNC(=O)CC#N)cc3)nn2)cc1", "note": "[Compound 9n, 2-Cyano-N′-(4-((1-(4-methylbenzyl)-1H-1,2,3-triazol-4-yl)methoxy)benzylidene)acetohydrazide]", "values": [{"measurement": "IC50", "setting": "[1]", "value": "82.4 ± 1.3", "unit": "µM"}]}
{"smiles": "COc1cc(C=NNC(=O)CC#N)ccc1OCc1cn(Cc2ccc(C)cc2)nn1", "note": "[Compound 9g, 2-Cyano-N′-(3-methoxy-4-((1-(4-methylbenzyl)-1H-1,2,3-triazol-4-yl)methoxy)benzylidene)acetohydrazide]", "values": [{"measurement": "IC50", "setting": "[1]", "value": "22.8 ± 0.6", "unit": "µM"}]}
{"smiles": "N#CCC(=O)NN=Cc1ccc(OCc2cn(Cc3ccccc3)nn2)cc1", "note": "[Compound 9h, N′-(4-((1-benzyl-1H-1,2,3-triazol-4-yl)methoxy)benzylidene)-2-cyanoacetohydrazide]", "values": [{"measurement": "IC50", "setting": "[1]", "value": "271.2 ± 0.3", "unit": "µM"}]}
{"smiles": "O=c1oc2ccccc2c(O)c1C(c1ccc(OCc2cn(Cc3ccccc3Cl)nn2)cc1)c1c(O)c2ccccc2oc1=O", "note": "[Compound A]", "values": [{"measurement": "mode of inhibition", "setting": "α-glucosidase [2]", "value": "competitive"}]}
{"smiles": "N#CCC(=O)NN=Cc1ccc(OCc2cn(Cc3ccc(F)cc3)nn2)cc1", "note": "[Compound 9j, 2-Cyano-N′-(4-((1-(4-fluorobenzyl)-1H-1,2,3-triazol-4-yl)methoxy)benzylidene)acetohydrazide]", "values": [{"measurement": "IC50", "setting": "[1]", "value": "56.6 ± 0.7", "unit": "µM"}]}
